Source: patent US9340483B2, “Methods of treating amyotrophic lateral sclerosis” (Anida Pharma Inc., priority 2012, dated 2016)
Where “and” joins values, the source holds several entries; their conditions need not be identical. Identical values can stand only once. Entries after “also recorded” stand apart in the source; their conditions may differ.

Key:
NSC34 cells = experiment: Wst-1 cell viability assay after H2O2 + TNFα stress, motor neuron cell line; type: cell-based, mouse
Description: (§1) Pharma Inc.) were added to the growth medium. […] NPD1, or Compound 1 in Table 1, was analyzed for activity in NCS34 cells, a mouse motor neuron cell line. […] Treatment with H2O2 and 10 ng/ml TNFα caused between 26-37% cell death in the motor neurons (FIG. 1).

[1] = as above; type: cell-based, mouse; settings: mouse; NPD 100 nM alone, 24 hrs incub., control (veh.) = 100
Description: as §1

C8-D1A cells = experiment: Wst-1 cell viability assay after H2O2 + TNFα stress, astrocyte cell line
Excerpt: It is well-known in the art that inflammation and oxidative stress are significant contributors to neurodegeneration. H2O2 is commonly used in experiments to simulate oxidate stress. […] Accordingly, in this in vitro assay, TNF-alpha and hydrogen peroxide (H2O2) were used as stressors to induce cell death to model ALS.
Cell viability after treatment with H2O2 and TNFα was examined in NCS34 cells, a mouse motor neuron cell line, and in C8-D1A cells, a mouse astrocyte cell line (from the American Type Tissue Culture Collection). The protocol for assessing the activity of any of the compounds disclosed herein in cultured cells is as follows:
Day 1: Cells were plated into 96 well plates at a confluency of 60%. Cells were maintained in growth medium consisting of Dulbecco's Modified Essential Medium (DMEM, LifeTechnologies Inc.) supplemented with 10% fetal bovine serum (Hyclone) and incubated in a tissue culture incubator at 37° C., 95% […] and 5% CO2.
Day 2: The growth medium was changed to 200 μl/well DMEM without fetal bovine serum. Additional agents, such as varying concentrations of H2O2 (Sigma Aldrich Inc.), TNFalpha, and a vehicle control or any of the compounds disclosed herein, e.g., NPD1 (Anida Pharma Inc.) were added to the growth medium. The cells were incubated overnight for 24 hours in a tissue culture incubator at 37° C., 95% […] and 5% CO2
Day 3: After 24 hours, 20 μl of Wst-1 cell viability reagent (Roche Applied Sciences Inc.) was added to each well (1:10 dilution in growth medium). Mix well by gently rocking the plate side-to-side. The cells were incubated at 37° C. for 60 minutes. […] A background control (or blank) for the growth medium and WST-1 reagent (without cells) can also be measured. The 630 nm background absorbance values are then subtracted from the 450 nm measurement for a normalized 450 nm absorbance value.
NPD1 activity was analyzed in C8-D1A cells, a mouse astrocyte cell line (American Type Tissue Culture Collection). C8-D1A cells were treated with increasing concentrations of H2O2 (1 μM, 10 μM, 50 μM, 100 μM, 400 μM and 800 μM) and 10 ng/ml TNFα without NPD1, or with 50 nM or 100 nM NPD1 for 24 hours. Cell viability was determined by Wst-1 cell viability assay, as described in Example 1. Each sample was performed in triplicate.

[2] = NPD 100 nM + TNFa 10 ng/ml + H2O2 1 uM, 24 hrs
[3] = NPD 100 nM + TNFa 10 ng/ml + H2O2 10 uM, 24 hrs
[4] = NPD 100 nM + TNFa 10 ng/ml + H2O2 50 uM, 24 hrs
[5] = NPD 100 nM + TNFa 10 ng/ml + H2O2 100 uM, 24 hrs
[6] = NPD 100 nM + TNFa 10 ng/ml + H2O2 400 uM, 24 hrs
[7] = NPD 100 nM + TNFa 10 ng/ml + H2O2 800 uM, 24 hrs
[8] = 0 uM H2O2 + 10 ng/ml TNFa, 50 nM NPD1, 24 hours
[9] = 0 uM H2O2 + 10 ng/ml TNFa, 100 nM NPD1, 24 hours
[10] = 25 uM H2O2 + 10 ng/ml TNFa, 50 nM NPD1, 24 hours
[11] = 25 uM H2O2 + 10 ng/ml TNFa, 100 nM NPD1, 24 hours
[12] = 50 uM H2O2 + 10 ng/ml TNFa, 50 nM NPD1, 24 hours
[13] = 50 uM H2O2 + 10 ng/ml TNFa, 100 nM NPD1, 24 hours
[14] = 100 uM H2O2 + 10 ng/ml TNFa, 50 nM NPD1, 24 hours
[15] = 100 uM H2O2 + 10 ng/ml TNFa, 100 nM NPD1, 24 hours
[16] = 200 uM H2O2 + 10 ng/ml TNFa, 50 nM NPD1, 24 hours
[17] = 200 uM H2O2 + 10 ng/ml TNFa, 100 nM NPD1, 24 hours
[18] = 400 uM H2O2 + 10 ng/ml TNFa, 50 nM NPD1, 24 hours
[19] = 400 uM H2O2 + 10 ng/ml TNFa, 100 nM NPD1, 24 hours
[20] = 800 uM H2O2 + 10 ng/ml TNFa, 50 nM NPD1, 24 hours
[21] = 800 uM H2O2 + 10 ng/ml TNFa, 100 nM NPD1, 24 hours
[22] = Mus musculus, C8-D1A, read-out: % cell viability

With `CC/C=C\C[C@H](O)\C=C/C=C/C=C/[C@H](O)C/C=C\C/C=C\CCC(=O)[O-].[Na+]` [NPD1, Sodium 4Z,7Z,10R,11E,13E,15Z,17S, 19Z)-10,17-dihydroxydocosa-4,7,11,13,15,19-hexaenoate] the “cell viability (in words)” value (NSC34 cells; 100 nM NPD1, 24 hours with H2O2 and 10 ng/ml TNFα) was “increased cell viability”, the viability at 0.1 µM (NSC34 cells; Mus musculus, NSC-34, read-out: % cell viability) was 78% and the “% Cell Viability” value (NSC34 cells; [2]) was 105.1%. For the same compound, the “Avg Abs 450 nm” value (NSC34 cells; [2]) was 0.7104, the “% Cell Viability” value (NSC34 cells; [3]) was 95.6% and the “Avg Abs 450 nm” value (NSC34 cells; [3]) was 0.645. For the same compound, the “% Cell Viability” value (NSC34 cells; NPD 100 nM + TNFa 10 ng/ml + H2O2 10 uM, 24 hrs, listed as NPD) was 95.45%, the “% Cell Viability” value (NSC34 cells; [4]) was 74.46% and the “Avg Abs 450 nm” value (NSC34 cells; [4]) was 0.5031. For the same compound, the “% Cell Viability” value (NSC34 cells; [5]) was 78.22%, the “Avg Abs 450 nm” value (NSC34 cells; [5]) was 0.5285 and the “% Cell Viability” value (NSC34 cells; [6]) was 78.26%. For the same compound, the “Avg Abs 450 nm” value (NSC34 cells; [6]) was 0.5288, the “% Cell Viability” value (NSC34 cells; [7]) was 81.41% and the “Avg Abs 450 nm” value (NSC34 cells; [7]) was 0.5501. The “Avg Abs 450 nm” value (NSC34 cells; NPD 100 nM alone, 24 hrs incub.) was 0.6462, the “Percent saved with NPD1 (14/36)” value (NSC34 cells; NPD1 100 nM vs TNFa + H2O2 alone) was 39% and the “cell viability (in words)” value (NSC34 cells; NPD1 added to cells treated with 50-800 μM H2O2 and 10 ng/ml TNFα) was “increases in cell viability”. The “% cells apoptosed” value (NSC34 cells; TNFa + H2O2 + NPD1 100 nM (TNFa + H2O2 alone: 36)) was 22%, the viability at 24 h, 100 nM [1] was 95.6% and the “absorbance after subtraction of background signal, avg” value (“absorbance after subtraction … avg” for short) (C8-D1A cells; [8]) was 0.586 and 0.5861. The “absorbance after subtraction of background signal, replicates 1-3” value (“absorbance after subtraction … replicates 1-3” for short) (C8-D1A cells; [8]) was 0.561 and 0.632 and 0.565, the “raw absorbance Avg.” value (C8-D1A cells; [8]) was 1.03 and the “raw absorbance, replicates 1-3” value (C8-D1A cells; [8]) was 1.0047 and 1.0764 and 1.0093. The “absorbance after subtraction … avg” value (C8-D1A cells; [9]) was 0.593 and 0.5931, the “absorbance after subtraction … replicates 1-3” value (C8-D1A cells; [9]) was 0.565 and 0.587 and 0.627 and the “raw absorbance Avg.” value (C8-D1A cells; [9]) was 1.037. For the same compound, the “raw absorbance, replicates 1-3” value (C8-D1A cells; [9]) was 1.0312 and 1.071 and 1.009, the “astrocyte cell survival and viability (in words)” value (C8-D1A cells; 50 nM or 100 nM NPD1, H2O2 + 10 ng/ml TNFα, 24 hours) was “increased cell survival and viability in a dose-dependent manner; also recorded: increased astrocyte viability and reduced astrocyte death” and the “absorbance after subtraction … avg” value (C8-D1A cells; [10]) was 0.560 and 0.5597. For the same compound, the “absorbance after subtraction … replicates 1-3” value (C8-D1A cells; [10]) was 0.551 and 0.541 and 0.588, the “raw absorbance Avg.” value (C8-D1A cells; [10]) was 1.004 and the “raw absorbance, replicates 1-3” value (C8-D1A cells; [10]) was 0.9946 and 0.985 and 1.0316. The “absorbance after subtraction … avg” value (C8-D1A cells; [11]) was 0.555 and 0.5549, the “absorbance after subtraction … replicates 1-3” value (C8-D1A cells; [11]) was 0.563 and 0.524 and 0.578 and the “raw absorbance Avg.” value (C8-D1A cells; [11]) was 0.9989. For the same compound, the “raw absorbance, replicates 1-3” value (C8-D1A cells; [11]) was 0.9676 and 1.0219 and 1.0073, the “absorbance after subtraction … avg” value (C8-D1A cells; [12]) was 0.392 and 0.3915 and the “absorbance after subtraction … replicates 1-3” value (C8-D1A cells; [12]) was 0.416 and 0.399 and 0.360. The “raw absorbance Avg.” value (C8-D1A cells; [12]) was 0.8355, the “raw absorbance, replicates 1-3” value (C8-D1A cells; [12]) was 0.8604 and 0.8427 and 0.8035 and the “absorbance after subtraction … avg” value (C8-D1A cells; [13]) was 0.412 and 0.4123. For the same compound, the “absorbance after subtraction … replicates 1-3” value (C8-D1A cells; [13]) was 0.434 and 0.390 and 0.414, the “raw absorbance Avg.” value (C8-D1A cells; [13]) was 0.8563 and the “raw absorbance, replicates 1-3” value (C8-D1A cells; [13]) was 0.8335 and 0.8579 and 0.8776. The “absorbance after subtraction … avg” value (C8-D1A cells; [14]) was 0.070 and 0.07003, the “absorbance after subtraction … replicates 1-3” value (C8-D1A cells; [14]) was 0.029 and 0.072 and 0.109 and the “raw absorbance Avg.” value (C8-D1A cells; [14]) was 0.514. For the same compound, the “raw absorbance, replicates 1-3” value (C8-D1A cells; [14]) was 0.4731 and 0.5164 and 0.5526, the “absorbance after subtraction … avg” value (C8-D1A cells; [15]) was 0.128 and 0.1278 and the “absorbance after subtraction … replicates 1-3” value (C8-D1A cells; [15]) was 0.125 and 0.138 and 0.120. The “raw absorbance Avg.” value (C8-D1A cells; [15]) was 0.5718, the “raw absorbance, replicates 1-3” value (C8-D1A cells; [15]) was 0.5823 and 0.5639 and 0.5691 and the “absorbance after subtraction … replicates 1-3” value (C8-D1A cells; [16]) was −0.021 and −0.023 and −0.022. The “raw absorbance Avg.” value (C8-D1A cells; [16]) was 0.4217, the “raw absorbance, replicates 1-3” value (C8-D1A cells; [16]) was 0.4228 and 0.4206 and 0.4217 and the “absorbance after subtraction … replicates 1-3” value (C8-D1A cells; [17]) was −0.027 and −0.023 and −0.015. For the same compound, the “raw absorbance Avg.” value (C8-D1A cells; [17]) was 0.4222, the “raw absorbance, replicates 1-3” value (C8-D1A cells; [17]) was 0.4209 and 0.429 and 0.4166 and the “absorbance after subtraction … replicates 1-3” value (C8-D1A cells; [18]) was −0.018 and −0.017 and −0.014. For the same compound, the “raw absorbance Avg.” value (C8-D1A cells; [18]) was 0.4274, the “raw absorbance, replicates 1-3” value (C8-D1A cells; [18]) was 0.4258 and 0.4267 and 0.4296 and the “absorbance after subtraction … replicates 1-3” value (C8-D1A cells; [19]) was −0.015 and −0.016 and −0.013. For the same compound, the “raw absorbance Avg.” value (C8-D1A cells; [19]) was 0.4291, the “raw absorbance, replicates 1-3” value (C8-D1A cells; [19]) was 0.4277 and 0.4307 and 0.4289 and the “absorbance after subtraction … replicates 1-3” value (C8-D1A cells; [20]) was −0.001 and −0.006 and 0.000. For the same compound, the “raw absorbance Avg.” value (C8-D1A cells; [20]) was 0.4415, the “raw absorbance, replicates 1-3” value (C8-D1A cells; [20]) was 0.4431 and 0.4376 and 0.4439 and the “absorbance after subtraction … avg” value (C8-D1A cells; [21]) was 0.005 and 0.004833. The “absorbance after subtraction … replicates 1-3” value (C8-D1A cells; [21]) was 0.002 and 0.004 and 0.008, the “raw absorbance Avg.” value (C8-D1A cells; [21]) was 0.4488 and the “raw absorbance, replicates 1-3” value (C8-D1A cells; [21]) was 0.4484 and 0.4523 and 0.4458. The viability at 0.05 µM (C8-D1A cells; [22]) was 12%, the viability at 0.1 µM (C8-D1A cells; [22]) was 23% and the “% cells apoptosed” value (C8-D1A cells; TNFa + H2O2 + NPD1 50 nM (TNFa + H2O2 alone: 99)) was 88%. For the same compound, the “% cells apoptosed” value (C8-D1A cells; TNFa + H2O2 + NPD1 100 nM (TNFa + H2O2 alone: 99)) was 77%.
